From US20060110789A1, “Methods to mediate polyketide synthase module effectiveness” (priority 2002, published 2006)

Legend:
[1] = tested on: (5)M2+TE, (5)M5+TE, and (5)M6+TE; conditions: Wu et al. 2000; cited from earlier work
(5)M3+TE and (3)M3+TE = conditions: either module 3+TE derivative, previously shown; cited from earlier work
module 6+TE ((5)M6+TE) = molecular target: T1, module 6+TE ((5)M6+TE) (Saccharopolyspora erythraea, UniProt Q03133, DEL53-1503); conditions: NAC thioester substrate, shown earlier; cited from earlier work
T1 construct: The protein was, in each case, a single module of the DEBS PKS fused to the thioesterase (TE) termination region of module 6; first 39 amino acids of module 5 (N-ERL); made in house; host or cells: E. coli (BL21(DE3) with sfp)

module 5+TE ((5)M5+TE) = conditions: NAC thioester substrate at saturating concentration, shown earlier; cited from earlier work
module 2+TE ((5)M2+TE) = molecular target: T2, module 2+TE ((5)M2+TE) (Saccharopolyspora erythraea, UniProt Q03131+Q03133); conditions: NAC thioester substrate, shown earlier; cited from earlier work
T2 construct: The protein was, in each case, a single module of the DEBS PKS fused to the thioesterase (TE) termination region of module 6; first 39 amino acids of module 5 (N-ERL); made in house; host or cells: E. coli (BL21(DE3) with sfp)

(5)M6+TE = molecular target: T3, (5)M6+TE (Saccharopolyspora erythraea, UniProt Q03133, DEL53-1503); experiment: Substrate transfer and elongation assay, acceptor DEBS module 6; assay type: biochemical
T3 construct: The protein was, in each case, a single module of the DEBS PKS fused to the thioesterase (TE) termination region of module 6; first 39 amino acids of module 5 (N-ERL); made in house; host or cells: E. coli (BL21(DE3) with sfp)
Protocol: (§1) Substrate transfer and elongation assays. Qualitative assays were performed with a diketide-ACP or diketide-PCP substrate either taken directly from the so phosphopantetheinlyation reaction or after further purification of the substrate. These assays were performed with 20 μM diketide-ACP/PCP substrate for 2 hours in the following reaction conditions: 1 μM acceptor module, 0.5 mM ^14C-methylmalonyl CoA, 4 mM NADPH in buffer C, 30° C. After quenching by addition of 250 μL EtOAc and vortexing, the products were extracted with 2×250 μL EtOAc, resolved on a silica gel TLC plate, and visualized on a Packard InstantImager.
(§2) The kinetics of substrate transfer at the module 2-module 3 interface followed by elongation and product release were examined as a function of the k60 μM and kcat/KM values of the overall reaction. The k60 μm values reported here represent the apparent overall rate of product formation at an initial substrate concentration of 60 μM. In many cases, the k60μm values approximate the maximal overall turnover rates, as determined by back calculating the KM value for the reactions. True saturation kinetics were not practical because of the technical limitations (e.g., solubility) and limited supply associated with high molecular weight substrates such as diketide-ACP and diketide-PCP. kcat/KM values were determined by competitive assay of the substrate of interest against a substrate with a known kcat/KM value, as previously described (Wu, et al., (2001) J. Am. Chem. Soc. 123, 6465-6474). […]
(§3) These reactions were quenched by the addition of 80 μL 12.5% SDS to 2 μL reaction mixture and immediate vortexing. […] After removing the organic solvents in vacuo, the residual products were then spotted onto a TLC plate (Baker-flex 250 uM silica gel), resolved in 60% EtOAc/40% hexanes, and the radioactive spots were visualized and quantified on a Packard InstantImager. […]

[2] = tested on: DEBS module 3 ((3)M3+TE or (5)M3+TE); experiment: Substrate transfer and elongation assay, acceptor DEBS module 3; assay type: biochemical; conditions: 20 μM substrate; FIG. 27 A: diketide-ACP2(2)+(3)M3+TE; B: diketide-ACP2(4)+(3)M3+TE; C: diketide-ACP4(4)+(5)M3+TE; D: diketide-ACP4(4)+(3)M3+TE
Protocol: as §1
as §2, with “The k60 μm values reported here represent the apparent overall rate of product formation at an initial substrate concentration of 60 μM.” left out

(5)M2+TE = molecular target: T4, (5)M2+TE (Saccharopolyspora erythraea, UniProt Q03131+Q03133); experiment: Substrate transfer and elongation assay, acceptor DEBS module 2; assay type: biochemical
T4 construct: The protein was, in each case, a single module of the DEBS PKS fused to the thioesterase (TE) termination region of module 6; first 39 amino acids of module 5 (N-ERL); made in house; host or cells: E. coli (BL21(DE3) with sfp)
Protocol: as §1, §2, §3

[3] = tested on: DEBS module 5 ((5)M5+TE or (3)M5+TE); experiment: Substrate transfer and elongation assay, acceptor DEBS module 5; assay type: biochemical
Protocol: as §1, §2, §3

[4] = versus diketide-ACP4(4), stated jointly for modules 2 and 6

Row | Compound | qualitative turnover of NAC thioesters [1] | qualitative incorporation of NAC thioesters ((5)M3+TE and (3)M3+TE) | kcat (module 6+TE ((5)M6+TE)) [min⁻¹] | kcat (elongation rate constant) (module 5+TE ((5)M5+TE)) [min⁻¹] | kcat (module 2+TE ((5)M2+TE)) [min⁻¹] | qualitative transfer of diketide to (5)M6+TE ((5)M6+TE; 20 μM substrate, 2 hours) | drop of k60 μM when linker interactions are eliminated ((5)M6+TE; [4]) | drop of kcat/KM when linker interactions are eliminated ((5)M6+TE; [4]) | qualitative transfer of diketide to module 3 (triketide lactone formation) [2] | qualitative transfer of diketide to (5)M2+TE ((5)M2+TE; 20 μM substrate, 2 hours) | drop of k60 μM when linker interactions are eliminated ((5)M2+TE; [4]) | drop of kcat/KM when linker interactions are eliminated ((5)M2+TE; [4]) | qualitative transfer of diketide to module 5 (triketide lactone formation) ([3]; 20 μM substrate, FIG. 28 A: diketide-ACP4(4)+(5)M5+TE, B: diketide-ACP4(4)+(3)M5+TE, C: diketide-ACP2(4)+(5)M5+TE, D: diketide-ACP2(2)+(5)M5+TE) | k60μm ([3]; acceptor (3)M5+TE, FIG. 29 B) [min⁻¹] | k60μm ([3]; acceptor (5)M5+TE, FIG. 29 A) [min⁻¹]
1 | CCC(O)C(C)C(=O)SCCNC(C)=O (stereo not drawn) [2a] | substrates for the three modules | readily incorporated and elongated | 17 | 0.25 | 4.6 |  |  |  |  |  |  |  |  |  | 
2 | diketide-ACP4(Ø): diketide on isolated ACP4 domain without linker region |  |  |  |  |  | observed | approximately 10 fold | 70-300 fold | not able to efficiently transfer substrates | observed | approximately 10 fold | 70-300 fold | Formation of the expected triketide lactone was observed | 0.27 | 0.49
